According to patent publication US20100075965A1, “PI3 KINASE INHIBITORS AND METHODS OF THEIR USE” (Novartis AG, priority 2006, published 2010):
pEC50, pIC50: −log10 of the molar value. Like-named read-outs stand apart in the source and are kept apart here.

Legend:
PI3 K Alpha = PI3 K Alpha (Homo sapiens, UniProt P42336); assay: PI3 kinase phosphorylation assays (homogenous solution phase, one step solid phase, ATP depletion/KinaseGlo); type: biochemical
Experimental: Compounds to be tested are dissolved in DMSO and directly distributed into 384-well flashplates at 1.25 μL per well. To start the reaction, 20 μL of 6 nM PI3 kinase are added into each well followed by 20 μL of 400 nM ATP containing a trace of radiolabeled ATP and 900 nM 1-alpha-phosphatidylinositol (PI). The plates are briefly centrifuged to remove any air gap. The reaction is performed for 15 minutes and then stopped by the addition of 20 μL of 100 mM EDTA. The stopped reaction is incubated overnight at RT to allow the lipid substrate to bind by hydrophobic interaction to the surface of the flashplate. The liquid in the wells is then washed away, and the labeled substrate is detected with scintillation counting.
This method is similar to Assay 1 except that the lipid substrate (1-alpha-phosphatidylinositol (PI)) is first dissolved in a coating buffer and incubated on flashplate at room temperature overnight to allow the lipid substrate to bind by hydrophobic interaction to the surface of the flashplate. Unbound substrate is then washed away. On the day of assay, 20 μL of 6 nM PI3 kinase are added into each well followed by 20 μL of 400 nM ATP containing trace of radiolabeled ATP. Compounds are added together with enzyme and ATP to the lipid-coated plates. The plates are briefly centrifuged to remove any air gap. The reaction is performed for two to three hours. The reaction is stopped by addition of 20 μL of 100 mM EDTA or by immediate plate washing. Phosphorylated lipid substrate is detected by scintillation counting.
Compounds to be tested are dissolved in DMSO and directly distributed into a black 384-well plate at 1.25 μL per well. To start the reaction, 25 μL of 10 nM PI3 kinase and 5 μg/mL 1-alpha-phosphatidylinositol (PI) are added into each well followed by 25 μL of 2 μM ATP. The reaction is performed until approx 50% of the ATP is depleted, and then stopped by the addition of 25 μL of KinaseGlo solution. The stopped reaction is incubated for 5 minutes and the remaining ATP is then detected via luminescence.

A2780 cells = assay: Viability assay in A2780 (Cell Titer Glo); type: cell-based, human; details: Homo sapiens, A2780 cells, read-out: A2780 Cell prolif. EC50
Experimental: Cell viability was assessed with Cell Titer Glo assay, Promega. Cells were seeded in TC treated 96-well plates at a density of 1,000 (A2780 cells) per well in DMEM with 10% FBS, 1% Sodium Pyruvate, and 1% Penicillin Streptomycin for a minimum of 2 hrs prior to addition of compound. Test compounds were serially diluted (3 fold) in DMSO to 500× the final concentration. For each concentration of test compound, 2 μL (500×) aliquots of compound or 100% DMSO (control) were diluted in 500 μL of culture medium to 2× final concentration then diluted 1× on the cells. Cells were incubated for 72 hrs at 37° C., 5% CO2. After which Cell Titer Glo is added to determine viable cells, the assay was performed according to the manufacturer's instruction (Promega Corporation, Madison, Wis. USA). Each experimental condition was performed in duplicate. Raw data was imported in Abase and EC50s calculated with XL-fit data analysis software and are shown in Tables 1 and 2 in the column labeled “A2780 Cell prolif. EC50”.

Chain of PI3 K Alpha (P42336 whole entry): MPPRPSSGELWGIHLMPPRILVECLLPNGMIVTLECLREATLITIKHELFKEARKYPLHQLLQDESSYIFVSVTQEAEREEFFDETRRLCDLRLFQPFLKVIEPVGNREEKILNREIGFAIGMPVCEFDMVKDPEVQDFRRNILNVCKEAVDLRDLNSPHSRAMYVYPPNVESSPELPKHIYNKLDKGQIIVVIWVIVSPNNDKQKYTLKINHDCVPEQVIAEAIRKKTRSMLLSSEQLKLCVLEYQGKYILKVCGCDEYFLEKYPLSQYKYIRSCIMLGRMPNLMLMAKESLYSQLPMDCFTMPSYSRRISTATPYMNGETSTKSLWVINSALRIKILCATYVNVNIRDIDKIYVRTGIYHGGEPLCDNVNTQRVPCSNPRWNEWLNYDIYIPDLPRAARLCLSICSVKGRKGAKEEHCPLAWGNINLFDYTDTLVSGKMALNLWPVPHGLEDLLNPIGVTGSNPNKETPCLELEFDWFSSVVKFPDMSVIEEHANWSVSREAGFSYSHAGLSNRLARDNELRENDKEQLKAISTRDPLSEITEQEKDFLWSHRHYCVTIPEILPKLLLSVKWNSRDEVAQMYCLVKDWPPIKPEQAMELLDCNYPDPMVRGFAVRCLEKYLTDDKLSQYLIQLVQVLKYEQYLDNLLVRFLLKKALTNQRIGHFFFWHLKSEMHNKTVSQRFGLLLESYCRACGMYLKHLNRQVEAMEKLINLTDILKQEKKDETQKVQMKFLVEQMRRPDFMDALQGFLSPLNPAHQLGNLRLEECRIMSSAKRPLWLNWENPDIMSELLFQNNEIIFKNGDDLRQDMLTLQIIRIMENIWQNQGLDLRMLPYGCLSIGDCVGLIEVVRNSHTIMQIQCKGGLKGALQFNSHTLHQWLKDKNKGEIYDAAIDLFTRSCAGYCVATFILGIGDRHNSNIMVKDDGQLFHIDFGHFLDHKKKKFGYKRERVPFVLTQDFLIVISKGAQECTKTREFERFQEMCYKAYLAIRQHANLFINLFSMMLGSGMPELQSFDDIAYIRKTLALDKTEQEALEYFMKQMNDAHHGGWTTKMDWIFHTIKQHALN
Chain of PI3 K Alpha (P27986 whole entry partner): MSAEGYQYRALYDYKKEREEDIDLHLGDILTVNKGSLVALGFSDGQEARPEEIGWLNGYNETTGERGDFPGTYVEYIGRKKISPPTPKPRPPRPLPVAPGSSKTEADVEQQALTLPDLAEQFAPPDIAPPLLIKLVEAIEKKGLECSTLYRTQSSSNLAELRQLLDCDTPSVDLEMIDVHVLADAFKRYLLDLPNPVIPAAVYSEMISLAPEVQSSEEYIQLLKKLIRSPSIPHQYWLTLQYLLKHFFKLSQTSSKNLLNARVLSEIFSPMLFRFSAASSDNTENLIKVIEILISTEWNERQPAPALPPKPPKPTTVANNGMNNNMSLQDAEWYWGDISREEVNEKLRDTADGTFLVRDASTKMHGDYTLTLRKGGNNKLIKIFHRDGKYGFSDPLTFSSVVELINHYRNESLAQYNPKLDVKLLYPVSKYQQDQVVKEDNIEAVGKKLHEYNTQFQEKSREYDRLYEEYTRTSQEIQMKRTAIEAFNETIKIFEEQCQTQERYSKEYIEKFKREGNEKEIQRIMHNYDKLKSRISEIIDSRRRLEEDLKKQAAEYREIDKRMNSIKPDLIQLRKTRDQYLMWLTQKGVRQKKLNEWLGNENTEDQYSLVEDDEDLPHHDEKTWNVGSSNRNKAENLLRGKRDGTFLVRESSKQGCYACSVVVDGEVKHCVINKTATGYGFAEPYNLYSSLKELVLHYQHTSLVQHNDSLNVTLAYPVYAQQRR

| pIC50 (PI3 K Alpha; read-out: PI3K Alpha IC50) | pEC50 (A2780 cells) | pIC50 (PI3 K Alpha; ATP depletion assay, read-out: PI3 K Alpha IC50) | pEC50 (A2780 cells; 72 hrs) | Compound |
| --- | --- | --- | --- | --- |
| > 6.00 | > 5.00 | – | – | CCN1CCC(OCC(=O)Nc2cn3cc(-c4cnc(N)c(C(F)(F)F)c4)ccc3n2)CC1 [Example 221, N-(6-(6-amino-5-(trifluoromethyl)yl)imidazo[1,2-a]pyridin-2-yl)-2-(1-ethylpiperidin-4-yloxy)acetamide] |
| > 6.00 | > 4.60 | – | – | NC(=O)N1CC[C@H]1C(=O)Nc1cn2cc(-c3cnc(N)c(C(F)(F)F)c3)ccc2n1 [Example 148, (S)-N2-(6-(6-amino-5-(trifluoromethyl)pyridin-3-yl)imidazo[1,2-a]pyridin-2-yl)azetidine-1,2-dicarboxamide] |
| > 6.00 | > 5.00 | – | – | C[C@@H](N)C(=O)Nc1cn2nc(-c3cnc(N)c(C(F)(F)F)c3)ccc2n1 [Example 223, (R)-2-amino-N-(6-(6-amino-5-(trifluoromethyl)pyridin-3-yl)imidazo[1,2-b]pyridazin-2-yl)propanamide] |
| > 6.00 | > 5.00 | – | – | CC(=O)Nc1cn2nc(-c3cnc(N)c(CN4CCCC4)c3)ccc2n1 [Example 242, N-(6-(6-amino-5-(pyrrolidin-1-ylmethyl)pyridin-3-yl)imidazo[1,2-b]pyridazin-2-yl)acetamide] |
| > 6.00 | > 5.00 | – | – | NCCC(=O)Nc1cn2nc(-c3cnc(N)c(C(F)(F)F)c3)ccc2n1 [Example 246, 3-amino-N-(6-(6-amino-5-(trifluoromethyl)pyridin-3-yl)imidazo[1,2-b]pyridazin-2-yl)propanamide] |
| > 6.00 | > 5.00 | – | – | CC(C)(C)OC(=O)N1CC(C(=O)Nc2cn3cc(-c4cnc(N)c(C(F)(F)F)c4)ccc3n2)C1 [Example 234, tert-butyl 3-(6-(6-amino-5-(trifluoromethyl)pyridin-3-yl)imidazo[1,2-a]pyridin-2-ylcarbamoyl) azetidine-1-carboxylate] |
| > 5.00 | > 4.60 | – | – | Nc1ncc(-c2ccc3nc(NC(=O)N4CC[C@H]4C(=O)O)cn3c2)cc1C(F)(F)F [Example 45, (S)-1-(6-(6-amino-5-(trifluoromethyl)pyridin-3-yl)imidazo[1,2-a]pyridin-2-ylcarbamoyl) azetidine-2-carboxylic acid] |
| > 6.00 | > 5.00 | – | – | CCOCC(=O)Nc1cn2cc(-c3cnc(N)c(C(F)(F)F)c3)ccc2n1 [Example 199, N-(6-(6-amino-5-(trifluoromethyl)pyridin-3-yl)imidazo[1,2-a]pyridin-2-yl)-2-ethoxyacetamide] |
| > 6.00 | > 4.60 | – | – | CC(=O)Nc1cn2cc(-c3ccc(N)nc3C)ccc2n1 [Example 144, N-(6-(6-amino-2-methylpyridin-3-yl)imidazo[1,2-a]pyridin-2-yl)acetamide] |
| > 6.00 | > 4.60 | – | – | CO/N=C/c1cc(-c2ccc3nc(NC(C)=O)cn3c2)cnc1N [Example 150, (E)-N-(6-(6-amino-5-((methoxy-imino)methyl)pyridin-3-yl)imidazo[1,2-a]pyridin-2-yl)acetamide] |
| > 6.00 | > 4.60 | – | – | CC(C)(C)OC(=O)N1CC[C@H]1C(=O)Nc1cn2cc(-c3cnc(N)c(C(F)(F)F)c3)ccc2n1 [Example 169, (S)-tert-butyl 2-(6-(6-amino-5-(trifluoromethyl)pyridin-3-yl)imidazo[1,2-a]pyridin-2-ylcarbamoyl) azetidine-1-carboxylate] |
| > 6.00 | > 5.00 | – | – | CC(=O)Nc1nc2ccc(-c3cnc(N)c(C(F)(F)F)c3)cn2c1CCc1ccccc1 [Example 254, N-(6-(6-amino-5-(trifluoromethyl)pyridin-3-yl)-3-phenethyl-imidazo[1,2-a]pyridin-2-yl)acetamide] |
| > 6.00 | > 4.60 | – | – | CC(=O)Nc1cn2cc(-c3cnc(N)c(C(=O)N4CCN(C(=O)OC(C)(C)C)CC4)c3)ccc2n1 [Example 152, tert-butyl 4-(5-(2-acetamido-imidazo[1,2-a]pyridin-6-yl)-2-aminonicotinoyl) piperazine-1-carboxylate] |
| > 6.00 | > 5.00 | – | – | Nc1ncc(-c2ccc3nc(NC(=O)[C@H]4CCCCN4)cn3c2)cc1C(F)(F)F [Example 216, (R)-N-(6-(6-amino-5-(trifluoromethyl)pyridin-3-yl)imidazo[1,2-a]pyridin-2-yl)piperidine-2-carboxamide] |
| – | – | > 6.00 | > 4.60 | CC(=O)Nc1nc2ccc(-c3cnc(N)nc3C(F)(F)F)cc2s1 [Example 2-13, N-[6-(2-Amino-4-trifluoromethyl-pyrimidin-5-yl)-benzothiazol-2-yl]-acetamide] |

Second part, the compound before the results:

| Compound | pIC50 (PI3 K Alpha; read-out: PI3K Alpha IC50) | pEC50 (A2780 cells) | pIC50 (PI3 K Alpha; ATP depletion assay, read-out: PI3 K Alpha IC50) | pEC50 (A2780 cells; 72 hrs) |
| --- | --- | --- | --- | --- |
| Nc1ncc(-c2ccc3nc(NC(=O)[C@@H]4CCCN4)cn3n2)cc1C(F)(F)F [Example 129, (S)-N-(6-(6-amino-5-(trifluoromethyl)pyridin-3-yl)imidazo[1,2-b]pyridazin-2-yl)pyrrolidine-2-carboxamide] | > 6.00 | > 5.00 | – | – |
| CC(=O)Nc1cccc(-c2c(NC(C)=O)nc3ccc(-c4cnc(N)c(C(F)(F)F)c4)cn23)c1 [Example 9, N-[3-(3-Acetylamino-phenyl)-6-(6-amino-5-trifluoromethyl-pyridin-3-yl)-imidazo[1,2-a]pyridin-2-yl]-acetamide] | > 6.00 | > 4.60 | – | – |
| CCN(CC)CCOc1cc(-c2ccc3nc(NC(C)=O)cn3c2)cnc1N [Example 42, N-(6-(6-amino-5-(2-(diethylamino)ethoxy)pyridin-3-yl)imidazo[1,2-a]pyridin-2-yl)acetamide] | > 5.00 | > 4.60 | – | – |
| COc1cc(-c2ccc3nc(NC(C)=O)cn3n2)c(C)nc1N [Example 43, N-(6-(6-amino-5-methoxy-2-methylpyridin-3-yl)imidazo[1,2-b]pyridazin-2-yl)acetamide] | > 5.00 | > 4.60 | – | – |
| C/C=C\c1c(NC(C)=O)nc2ccc(-c3cnc(N)c(C(F)(F)F)c3)cn12 [Example 156, (Z)-N-(6-(6-amino-5-(trifluoromethyl)pyridin-3-yl)-3-(prop-1-enyl)imidazo [1,2-a]pyridin-2-yl)acetamide] | > 6.00 | > 4.60 | – | – |
| CCC(=O)Nc1cn2cc(-c3cnc(N)c(C(F)(F)F)c3)ccc2n1 [Example 236, N-(6-(6-amino-5-(trifluoromethyl)pyridin-3-yl)imidazo[1,2-a]pyridin-2-yl)propionamide] | > 6.00 | > 5.00 | – | – |
| CCN(CC)Cc1cc(-c2ccc3nc(NC(C)=O)cn3n2)cnc1N [Example 240, N-(6-(6-amino-5-((diethylamino)methyl)pyridin-3-yl)imidazo[1,2-b]pyridazin-2-yl)acetamide] | > 6.00 | > 5.00 | – | – |
| Nc1ncc(-c2ccc3nc(NC(=O)c4cccc(Cl)c4)cn3c2)cc1C(F)(F)F [Example 225, N-(6-(6-amino-5-(trifluoromethyl)pyridin-3-yl)imidazo[1,2-a]pyridin-2-yl)-3-chlorobenzamide] | > 6.00 | > 5.00 | – | – |
| Nc1ncc(-c2ccc3nc(NC(=O)N4CC[C@H](O)C4)cn3c2)cc1C(F)(F)F [Example 224, (S)-N-(6-(6-amino-5-(trifluoromethyl)pyridin-3-yl)imidazo[1,2-a]pyridin-2-yl)-3-hydroxy-pyrrolidine-1-carboxamide] | > 6.00 | > 5.00 | – | – |
| CC(=O)Nc1nc2ccc(-c3cnc(N)c(C(F)(F)F)c3)cn2c1C(N)=O [Example 243, 2-acetamido-6-(6-amino-5-(trifluoromethyl)pyridin-3-yl)imidazo[1,2-a]pyridine-3-carboxamide] | > 6.00 | > 5.00 | – | – |
| Nc1ncc(-c2ccc3nc(NC(=O)CN4CCCCC4)cn3c2)nc1OCC(F)(F)F [Example 109, N-(6-(5-amino-6-(2,2,2-trifluoroethoxy)pyrazin-2-yl)imidazo[1,2-a]pyridin-2-yl)-2-(piperidin-1-yl)acetamide] | > 6.00 | > 6.00 | – | – |
| CCCc1c(NC(C)=O)nc2ccc(-c3cnc(N)c(C(F)(F)F)c3)cn12 [Example 31, N-[6-(6-Amino-5-trifluoromethyl-pyridin-3-yl)-3-propyl-imidazo[1,2-a]pyridin-2-yl]-acetamide] | > 6.00 | > 4.60 | – | – |
